Results taken from PMC11845477, “Exploring the principles behind antibiotics with limited resistance” (Nature Communications, 2025).
Where “and” joins values, the source holds several entries; their conditions need not be identical. Identical values can stand only once. Like-named read-outs stand apart in the source and are kept apart here. Where a SMILES comes first, the peptide text is derived from it. Bridges are numbered along the chain shown (N, C = ends). [ ]: non-standard residue; d: D form. The star is where a group is joined. X1 = NC[C@@H](CC(=O)*)c1cccc(Cl)c1; Dab = NCC[C@H](N)C(=O)O; Dap = NC[C@H](N)C(=O)O

Tests used:
K. pneumoniae = format: cell-based, Klebsiella pneumoniae; conditions: Klebsiella pneumoniae, survival at 10xMIC for 4 hours, single replicates, (fig 9a source data)
Procedure: We employed image analysis to quantify bacterial survival under fixed antibiotic concentrations (10xMIC for 4 hours) on E. coli, A. baumannii, K. pneumoniae, and P. aeruginosa. […] Survival rate was quantified by calculating the ratio of the viable cells after antibiotic treatment and the total initial viable cell count.
Fig. 9 Killing kinetics of the studied antibiotics. a Bacterial survival rate in response to toxic antibiotic exposure. […] The bars indicate the survival rate (log10) compared to the untreated initial viable cell count (see “Methods”). Data are presented as mean values of 5 biological replicates ± SEM. The antibiotic group differentiation is denoted by color. […] Survival was estimated by measuring cell viability (colony-forming units/ml) of 2 biologically independent strains following a 4-hour exposure to different concentrations of 16 antibiotics on E. coli ATCC25922 (for further details, see “Methods”). The antibiotic concentration that kills 99.9% of the E. coli population is indicated as a vertical dotted line (see Supplementary Data 5). Error bars represent standard error calculated from the colony counts by Poisson’s model. A Hill function was fitted to the dose-response data from two biological replicates, producing sigmoidal curves (Supplementary Data 5). The Hill coefficient reflects how steeply the survival rate decreases in response to increasing antibiotic concentration ([…]). […] X-axis label colors indicate mode of action groups. For detailed information on antibiotic and bacterial species, see Supplementary Data 1. Source data are provided as a Source Data file.
In this current study, the killing kinetics of each antibiotic was measured according to a previously established experimental protocol[62] with minor modifications. During this assay, the bacterial cultures were exposed to antibiotics in 96-well assay plates and their viability after 4 hours of exposure was quantified by two methods: i) microplating and colony counting or ii) fluorescent staining of cells and counting of the fluorescent units.
Specifically, these experiments were performed in the following steps: (1) Preparation of bacterial stocks. Single colonies from each strain were isolated and grown overnight in MHB medium at 37 °C, 160 rpm. In case of the fluorescently tagged E. coli strains, the medium was supplemented with 10 μg/mL chloramphenicol, to maintain the pZS2R plasmid. Overnight cultures were diluted 1:5000 and grown to an optical density at 600 nm (OD600) of 0.25. These cultures were concentrated by centrifugation and small aliquots of 50 μL containing ~2.2 × 10^9 cells were frozen in glycerol (stored at −80 °C). (2) Preparing assay plates with antibiotics. 96-well plates were filled with 235 μL MHB and supplemented with antibiotics using an automated digital dispenser (D300e, Tecan). In the case of SCH79797, we used minimal media. […] For testing the clearance efficacy of each antibiotic at a single lethal dose, the 10x of the MIC for each antibiotic-strain pair were prepared in at least three replicates. (3) Antibiotic exposure. During the dose response assay, frozen cultures of the E. coli strains expressing YFP and mCherry were thawed and mixed at a 1:1 ratio, diluted 1:1000 in 30 mL MHB and incubated for 45 min at 37 °C and 160 rpm. During the single-dose assay, the frozen cultures of experimental strains (E. coli, K. pneumoniae, A. baumannii) were also thawed and diluted 1:1000 in 30 mL MHB and incubated at 37 °C to reach an OD of 0.25 and 160 rpm. Following this incubation phase, these bacterial cultures were then aliquoted into the 96-well deep-well antibiotic plates (15 μL culture; total volume of 250 μL) at an inoculum density of about 10^7 CFU.

[1] = tested on: P. aeruginosa ATCC BAA-3107 (SEN) and P. aeruginosa LESB58 (MDR); test: Frequency-of-resistance (FoR) assay, relative MIC of mutants; format: cell-based, Pseudomonas aeruginosa
Procedure: The susceptibility of antibiotics to resistance development was evaluated in two strains of each bacterial species: a multidrug-resistant strain and an antibiotic-sensitive strain of Escherichia coli, Klebsiella pneumoniae, Acinetobacter baumannii, and Pseudomonas aeruginosa. To explore first-step resistance, we previously used a standard protocol for spontaneous frequency-of-resistance analysis (FoR assay) at multiple concentrations of each antibiotic[10],[28],[31]–[33]. […] For all other combinations, approximately 10^10 bacterial cells were exposed to one of each antibiotic on agar plates for two days at concentrations where the given strain is susceptible. We examined resistance levels by contrasting the minimum inhibitory concentration (MICs) of the mutated strains to the original wild-type bacterial strain (i.e., relative MIC).
To estimate the frequency of spontaneous mutations that confer resistance in a microbial population, we conducted a frequency of resistance (FoR) assay following established protocols[10],[31]–[33]. […] Prior to plating, bacteria were grown overnight in MHB medium at 37 °C and 250 RPM, then centrifuged and washed in MHB. All experiments were performed in triplicate, and plates were incubated at 37 °C for 48 hours. Total colony-forming units (CFUs) were determined by plating appropriate dilutions onto antibiotic-free MHB agar. Resistance frequencies were calculated by dividing the number of resistant colonies by the initial viable cell count. From the plates with the highest antibiotic concentration, ten colonies were selected for MIC determination and whole-genome sequencing.
A robotic liquid handling system was used to automatically prepare a 11 to 16-step serial dilution in 384-well microtiter plates (Greiner). A final concentration of 5 × 10^5 bacterial cells per mL were inoculated into each well containing 60 µL MHB medium. Bacterial cultures were incubated at 37 °C with continuous shaking (Infors shaker, 900 rpm with 3 mm throw) for 18 hours (2 replicates from each). Cell growth was monitored by measuring the optical density (OD600 values, using Biotek Synergy microplate reader). MIC was defined as the antibiotic concentration of complete growth inhibition (i.e., OD600 < 0.05). Relative MIC was calculated as follows:1 relativeMIC=MICevolved/MICancestor […]
Supplementary Figure 3. Resistance levels following the frequency of resistance assay across bacterial strains. The level of resistance was measured as the fold change in relative MIC between evolved and ancestral strains. Data are grouped by bacterial strain (A. baumannii (AB), E. coli (EC), K. pneumoniae (KP), and P. aeruginosa (PA)) and categorized as either multidrug-resistant (MDR) or sensitive (SEN). Each data point represents a laboratory evolved line, and boxplots show the median, first and third quartiles, with whiskers indicating the 5th and 95th percentiles. […]
analysis was performed using two-sided Dunn’s post-hoc test with Benjamini-Hochberg correction for multiple comparisons (**/ * indicates p < 0.01/ 0.05). For detailed information on antibiotic and bacterial species, see Supplementary Table 1. For mode of action groups, refer to Table 1. Source data are provided as a Source Data file.

[2] = P. aeruginosa ATCC BAA 3107 (PA-SEN), evolved line 1
[3] = P. aeruginosa ATCC BAA 3107 (PA-SEN), evolved line 1, evolved vs ancestor
[4] = P. aeruginosa ATCC BAA 3107 (PA-SEN), evolved line 2
[5] = P. aeruginosa ATCC BAA 3107 (PA-SEN), evolved line 2, evolved vs ancestor
[6] = P. aeruginosa ATCC BAA 3107 (PA-SEN), evolved line 3
[7] = P. aeruginosa ATCC BAA 3107 (PA-SEN), evolved line 3, evolved vs ancestor

SMILES	Survival rate (log10) (K. pneumoniae; listed as SPR)	Relative MIC ([1]; FoR assay, Pseudomonas aeruginosa ATCC BAA 3107 (PA-SEN), evolved line 1)	Relative MIC ([1]; FoR assay, Pseudomonas aeruginosa ATCC BAA 3107 (PA-SEN), evolved line 2)	Relative MIC ([1]; FoR assay, Pseudomonas aeruginosa ATCC BAA 3107 (PA-SEN), evolved line 3)	MIC of evolved line [1, 2] [mg/L]	Relative MIC [1, 3]	MIC of evolved line [1, 4] [mg/L]	Relative MIC [1, 5]	MIC of evolved line [1, 6] [mg/L]	Relative MIC [1, 7]	MIC of evolved line ([1]; P. aeruginosa LESB 58 (PA-MDR), evolved line 1) [mg/L]	Relative MIC ([1]; P. aeruginosa LESB 58 (PA-MDR), evolved line 1, evolved vs ancestor)	MIC of evolved line ([1]; P. aeruginosa LESB 58 (PA-MDR), evolved line 2) [mg/L]	Relative MIC ([1]; P. aeruginosa LESB 58 (PA-MDR), evolved line 2, evolved vs ancestor)	MIC of evolved line ([1]; P. aeruginosa LESB 58 (PA-MDR), evolved line 3) [mg/L]	Relative MIC ([1]; P. aeruginosa LESB 58 (PA-MDR), evolved line 3, evolved vs ancestor)	Survival rate (log10) (K. pneumoniae; listed as ERA)
CC(C)C[C@@H]1NC(=O)[C@@H](Cc2ccccc2)NC(=O)[C@H](CCN)NC(=O)[C@@H](NC(=O)[C@H](CN)NC(=O)[C@@H](NC(=O)C[C@H](CN)c2cccc(Cl)c2)[C@@H](C)O)CCNC(=O)[C@H]([C@@H](C)O)NC(=O)[C@H](CCN)NC(=O)[C@H](CCN)NC1=O [SPR206] (X1-T[Dap][Dab][Dab][dF]L[Dab][Dab]T; lactam 3-C (inferred); N-terminus assumed)	-4.671 log10 and -4.37 log10 and -3.671 log10	1	1	1	1	1	1	1	1	1	128	32	64	16	64	16	
CN(C)[C@@H]1C(O)=C(C(N)=O)C(=O)[C@@]2(O)C(O)=C3C(=O)c4c(O)c(NC(=O)CN5CCCC5)cc(F)c4C[C@H]3C[C@@H]12 [Eravacycline]					32	8	32	8	32	8							-0.6401 log10 and -0.9022 log10 and -0.9087 log10 and -0.8384 log10 and -0.7454 log10
